Among the data in PubChem BioAssay (NCI) are GI50 and TGI values, retold here.

Several values for one entry are separate records, joined by “and”; a condition that tells them apart may be missing. Equal values may be shown once.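 The compound was tested at five concentrations on cells cultured in 96-well plates, with a 48-hour exposure period. The concentration for 50% growth inhibition is given as GI50. TGI marks complete inhibition of growth.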 Bounds are passed on as bounds.

Holding throughout (assay): NCI anticancer screen, dose series, 48 h
In assay [1] the test system is SW-620 colon.
The subject of assay [2] is DU-145 prostate.
The subject of assay [3] is HL-60(TB) leukemia.
The subject of assay [4] is MALME-3M melanoma.
Assay [5] relates to RXF 393 renal.
For assay [6], the system named is SK-OV-3 ovarian.
In assay [7] the test system is SK-MEL-2 melanoma.
The test system of assay [8] is K-562 leukemia.
Assay [9] deals with IGROV1 ovarian.
The test system of assay [10] is LOX IMVI melanoma.

`CCNC(=O)O[C@H]1CN[C@H](C#Cc2cc3ncnc(Nc4ccc(OCc5cccc(F)c5)c(Cl)c4)c3s2)C1`: the GI50 in assay [1] is 12 µM; in [2], 4.72 µM; in assay [3], 5.71 µM; in assay [4] it was 3.99 µM; in assay [5] it was 4.75 µM; in [6], 0.0299 µM. The GI50 in [7] was 6.1 µM; in [8] it was 9.45 µM; in assay [9], 2.66 µM; in [10] it was 8.12 µM. The TGI in assay [1] was more than 25 µM; in assay [2], more than 25 µM; in assay [3] it was more than 19.4 µM; in assay [4] it was 11.7 µM; in [5], more than 17.3 µM; in assay [6] it was more than 25 µM. Also, the TGI in assay [7] is 24.9 µM; in assay [8], more than 25 µM; in [9], more than 25 µM; in [10] it was more than 25 µM.

In the case of `COc1cc(C2CC(c3ccc(Nc4ccnc5cc(Cl)ccc45)cc3)=NN2c2ccc(Cl)cc2)cc(OC)c1OC` (centres undefined), the GI50 in [1] is 2.55 µM; in [2], 8.08 µM; in assay [3], 4.68 µM; in [4], more than 100 µM; in assay [5], 1.34 µM; in [6], 3.26 µM. For the same compound, the GI50 in assay [7] was 2.35 µM; in [8] it was 0.857 µM; in [9], 4.81 µM; in assay [10], 1.66 µM. Further, the TGI in assay [1] was more than 100 µM; in assay [2] it was more than 100 µM; in assay [3], more than 100 µM; in [4] it was more than 100 µM; in assay [5], 8.05 µM; in [6], more than 100 µM. In addition, the TGI in assay [7] was 6.6 µM; in [8], more than 100 µM; in assay [9], more than 100 µM; in assay [10], 11.3 µM.

Turning to `Cc1ccc(Cl)cc1NC(=O)c1sc2nc3c(cc2c1N)C(=O)CCC3`, the GI50 in assay [1] is 3.68 µM; in assay [2], 4.4 µM; in [5] it was 2.48 µM; in assay [6] it was 5.26 µM; in assay [7] it was 3.14 µM; in [8], 3.48 µM. Also, the GI50 in assay [9] was more than 100 µM. Besides, the TGI in assay [1] was more than 100 µM; in assay [2] it was more than 100 µM; in [5], 6.96 µM; in [6], more than 100 µM; in assay [7] it was more than 100 µM; in [8] it was more than 100 µM. Moreover, the TGI in assay [9] was more than 100 µM.

Consider `CSc1nc(SC)c2c(CO)c(Br)n(Cc3ccccc3)c2n1`, for which the TGI in assay [1] is more than 100 µM; in [2], 77.8 µM; in assay [3] it was more than 100 µM; in [4], more than 100 µM; in [5], 60.3 µM; in assay [6], 37.6 µM. The TGI in [7] was more than 100 µM; in [9] it was 39.3 µM; in assay [10], more than 100 µM.

With `CCN1CCN(CC(=O)N2c3cccc4cccc(c34)N(C(=O)CN3CCN(CC)CC3)C2c2cn(-c3ccccc3)nc2-c2cccc([N+](=O)[O-])c2)CC1`, the GI50 is 1.73 µM in [1]; 1.96 µM in assay [2]; 1.93 µM in assay [3]; 1.63 µM in assay [4]; 1.62 µM in assay [5]; 1.9 µM in assay [6]. Moreover, the GI50 in assay [7] is 1.84 µM; in assay [9], 1.62 µM; in [10], 1.62 µM. In addition, the TGI in assay [1] amounted to 3.41 µM; in assay [2], 4.03 µM; in assay [3], 3.85 µM; in [4], 3.13 µM; in assay [5], 3.09 µM; in assay [6], 3.74 µM. Further, the TGI in [7] is 3.58 µM; in assay [9] it was 3.28 µM; in [10], 3.11 µM.

Turning to `COC(=O)[C@@H](C)C[C@H](Cc1ccccc1)NC(=O)c1csc([C@@H](C[C@H](C(C)C)N(C)C(=O)[C@@H](NC(=O)[C@H]2CCCCN2C)C2CC2)OC(C)=O)n1`, the GI50 in [1] was 0.000292 µM and 0.00165 µM; in assay [2], 0.000311 µM; in [3], 0.000235 µM and < 0.00165 µM; in assay [4], 0.000312 µM; in [6] it was 0.000604 µM and 0.00165 µM; in assay [7], 0.000344 µM. The GI50 in assay [8] is 0.000313 µM and 0.00165 µM; in assay [9], 0.00104 µM and 0.00165 µM; in assay [10], 0.000562 µM and 0.00165 µM. Besides, the TGI is more than 16.5 µM in assay [1]; 0.000839 µM and < 0.00165 µM in assay [3]; more than 16.5 µM in assay [6]; more than 16.5 µM in assay [8]; more than 16.5 µM in assay [9]; more than 16.5 µM in [10].

On to `CC(C)=CC1=C2C3=C(C(=O)C4(O)Oc5c(C)c6c7c(c5OC24C)[C@@H](C)CC[C@@H]7[C@@H](C)C[C@H]6C=C(C)C)C(C)CCC3C(C)C1` (some centres undefined), for which the GI50 in assay [1], in assay [2], in assay [4], in [5], in assay [6] and in assay [7] was more than 100 µM in each case. The GI50 in [8], in assay [9] and in [10] was more than 100 µM in each case. Also, the TGI in [1], in assay [2], in assay [4], in [5], in assay [6] and in assay [7] was more than 100 µM in each case. The TGI in [8], in [9] and in assay [10] was more than 100 µM in each case.

`CC12CCC(Br)C(C)(C)C1CC=C1C(=O)OCC1O2` (centres undefined): the TGI in [1] is 32.8 µM; in [2], 25.7 µM; in [3], more than 100 µM; in assay [5], 26.3 µM; in [6] it was 29.9 µM; in assay [7] it was 28.6 µM. The figures for the TGI in assay [8], in assay [9] and in [10] were more than 100 µM, 17.7 µM and 30.4 µM, respectively.

Consider `Oc1ccc2oc3ncc(Br)c(-c4ccccc4)c3c2c1`, for which the GI50 in assay [1], in [2], in [3], in [5], in assay [6] and in [7] was more than 100 µM each time. In addition, the GI50 in assay [8], in assay [9] and in assay [10] was more than 100 µM throughout. Further, the TGI in assay [1], in assay [2], in assay [3], in assay [5], in assay [6] and in assay [7] was more than 100 µM in each case. The TGI in [8], in [9] and in [10] was more than 100 µM throughout.

With `CCOC(=O)c1c2c(n3ccccc13)C(=O)c1ncccc1C2=O`, the GI50 in [2] was 0.0466 µM; in [3] it was 0.0784 µM; in assay [4], 0.0561 µM; in [5], 0.0792 µM; in assay [6], 0.0683 µM; in [7], 8.23 µM. For the same compound, the GI50 in [8] was 0.0745 µM; in [9], 0.0987 µM; in assay [10], 0.0413 µM. The TGI in assay [2] came to 5.31 µM; in assay [3], 1.09 µM; in assay [4] it was 4.56 µM; in assay [5], 13.9 µM; in assay [6] it was 22.9 µM; in assay [7], 90.3 µM. In addition, the TGI is more than 100 µM in assay [8], 42.7 µM in assay [9] and 1.78 µM in assay [10].

Regarding `Cc1cn(-c2cc(NC(=O)c3ccc(C)c(Nc4nccc(-c5cccnc5)n4)c3)cc(C(F)(F)F)c2)cn1`, the GI50 was 4.44 µM and 3.43 µM in [1]; 3.25 µM and 2.34 µM in assay [2]; 1.69 µM and 0.78 µM in [4]; 2.59 µM and 2.01 µM in assay [5]; > 10 µM and 3.91 µM in assay [6]; 2.19 µM and 2.1 µM in assay [7]. Besides, the GI50 in [8] was 2.15 µM; in assay [9], 2.23 µM and 1.83 µM; in assay [10], 2.77 µM and 5.57 µM. Also, the TGI in assay [1] is more than 40.9 µM; in assay [2], > 10 µM and 4.47 µM; in assay [4], 5.04 µM and 4.1 µM; in assay [5], 6.54 µM and 4.12 µM; in [6], > 10 µM and 11.3 µM; in assay [7], > 10 µM and 10.4 µM. The TGI in [8] was > 10 µM and 1.03 µM; in assay [9] it was 5.06 µM and 4.2 µM; in assay [10], > 10 µM and 26.5 µM.

Consider `Cc1ccc(O)c(NC(=O)c2ccc(CNc3ccnc(C(F)(F)F)c3)cc2)c1`, for which the GI50 in [1] is 8.7 µM; in [2], 12.8 µM; in [3] it was 1.21 µM; in assay [4], 2.53 µM; in assay [5] it was 25.4 µM; in assay [6] it was 3.87 µM. For the same compound, the GI50 in assay [8] is 1.54 µM; in assay [9], 1.82 µM; in assay [10] it was 5.64 µM. In addition, the TGI in assay [1] came out at 42.4 µM; in assay [2], 39.4 µM; in assay [3], 14.8 µM; in [4] it was 22.1 µM; in assay [5], 63.1 µM; in [6] it was 36.7 µM. Also, the TGI in assay [8] is 17.9 µM; in assay [9], 16.4 µM; in assay [10], 31.4 µM.

With `COc1cccc(/C=N/C(/N=C/c2cccc(OC)c2O)c2cccc(OC)c2O)c1O`, the TGI in [1] was more than 100 µM; in assay [2], 78.7 µM; in assay [3], 68.5 µM; in assay [5], 29.2 µM; in assay [6], 78.1 µM; in [7] it was 43.2 µM. Further, the results for the TGI in assay [8], in [9] and in assay [10] were more than 100 µM, 62.8 µM and 58 µM, respectively.
